# According to ChEMBL document CHEMBL1201862, “PubChem BioAssay data set” (2004):
#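 Test compounds were applied to cells in 96-well plates for 48 hours at 5 doses. GI50 is the concentration that inhibits growth by half.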 The source made the active and inactive calls. No stated cut-off is given here; in the data, active = GI50 up to about 1.1 µM and inactive = higher.
# Assays:
# Assay in all cases: inhibition of tumour cell growth, NCI panel, 48 h
# SF-295 = test system: SF-295
# NCI/ADR-RES = test system: NCI/ADR-RES
# UACC-62 = test system: UACC-62
# A549 = test system: A549
# PC-3 = test system: PC-3
# RXF 393 = test system: RXF 393
# SK-OV-3 = test system: SK-OV-3
# HOP-92 = test system: HOP-92
# Hs-578T = test system: Hs-578T
# SF-268 = test system: SF-268
# CAKI-1 = test system: CAKI-1
# SK-MEL-28 = test system: SK-MEL-28
# MDA-MB-435 = test system: MDA-MB-435
# M14 = test system: M14
# SNB-19 = test system: SNB-19
# SNB-75 = test system: SNB-75
# CCRF-CEM = test system: CCRF-CEM
# SR = test system: SR
# NCI-H460 = test system: NCI-H460
# T47D = test system: T47D
# EKVX = test system: EKVX
# U-251 = test system: U-251
# NCI-H23 = test system: NCI-H23
# Malme-3M = test system: Malme-3M
# SK-MEL-5 = test system: SK-MEL-5
# ACHN = test system: ACHN
# HOP-62 = test system: HOP-62
# NCI-H522 = test system: NCI-H522
# UO-31 = test system: UO-31
# A498 = test system: A498
# HCC 2998 = test system: HCC 2998
# HCT-15 = test system: HCT-15
# HCT-116 = test system: HCT-116
# HT-29 = test system: HT-29
# OVCAR-3 = test system: OVCAR-3
# UACC-257 = test system: UACC-257
# K562 = test system: K562
# MDA-N = test system: MDA-N
# MOLT-4 = test system: MOLT-4
# SK-MEL-2 = test system: SK-MEL-2
# MDA-MB-231 = test system: MDA-MB-231
# COLO 205 = test system: COLO 205
# SF-539 = test system: SF-539
# BT-549 = test system: BT-549
# HL-60 = test system: HL-60
# SW-620 = test system: SW-620
# LOX IMVI = test system: LOX IMVI
# IGROV-1 = test system: IGROV-1
# SN12C = test system: SN12C
# OVCAR-5 = test system: OVCAR-5
# MCF7 = test system: MCF7
# RPMI-8226 = test system: RPMI-8226
# KM12 = test system: KM12
# 786-0 = test system: 786-0
# TK-10 = test system: TK-10
# OVCAR-4 = test system: OVCAR-4
# OVCAR-8 = test system: OVCAR-8
# NCI-H226 = test system: NCI-H226
# DU-145 = test system: DU-145
structure (smiles),measurement,setting,value
Cc1cccc2c(N)c3cccc(C(=O)NCC[N+]4(Cc5ccc([N+](=O)[O-])cc5)CCOCC4)c3nc12,GI50,SF-295,27.5 µM (inactive)
same,GI50,NCI/ADR-RES,> 95.1 µM (inactive)
same,GI50,UACC-62,> 51.4 µM (inactive)
same,GI50,A549,31.5 µM (inactive)
same,GI50,PC-3,40.4 µM (inactive)
same,GI50,RXF 393,62.2 µM (inactive)
same,GI50,SK-OV-3,> 100 µM (inactive)
same,GI50,HOP-92,22.4 µM (inactive)
same,GI50,Hs-578T,7.26 µM (inactive)
same,GI50,SF-268,15.6 µM (inactive)
same,GI50,CAKI-1,> 100 µM (inactive)
same,GI50,SK-MEL-28,49.7 µM (inactive)
same,GI50,MDA-MB-435,80.5 µM (inactive)
same,GI50,M14,71.8 µM (inactive)
same,GI50,SNB-19,18.2 µM (inactive)
same,GI50,SNB-75,16 µM (inactive)
same,GI50,CCRF-CEM,26.1 µM (inactive)
same,GI50,SR,20.8 µM (inactive)
same,GI50,NCI-H460,14.6 µM (inactive)
same,GI50,T47D,29.2 µM (inactive)
same,GI50,EKVX,36.2 µM (inactive)
same,GI50,U-251,38.8 µM (inactive)
same,GI50,NCI-H23,35.9 µM (inactive)
same,GI50,Malme-3M,29.4 µM (inactive)
same,GI50,SK-MEL-5,53.5 µM (inactive)
same,GI50,ACHN,29 µM (inactive)
same,GI50,HOP-62,25.7 µM (inactive)
same,GI50,NCI-H522,13.5 µM (inactive)
same,GI50,UO-31,48.2 µM (inactive)
same,GI50,A498,42.2 µM (inactive)
same,GI50,HCC 2998,12.3 µM (inactive)
same,GI50,HCT-15,45.1 µM
same,GI50,HCT-116,16.1 µM (inactive)
same,GI50,HT-29,25.8 µM (inactive)
same,GI50,OVCAR-3,61.1 µM (inactive)
same,GI50,UACC-257,60.3 µM (inactive)
same,GI50,K562,16 µM (inactive)
same,GI50,MDA-N,59.6 µM (inactive)
same,GI50,MOLT-4,13.5 µM (inactive)
same,GI50,SK-MEL-2,> 79.1 µM (inactive)
same,GI50,MDA-MB-231,> 60.1 µM (inactive)
same,GI50,COLO 205,45.9 µM (inactive)
same,GI50,SF-539,24.8 µM (inactive)
same,GI50,BT-549,47.5 µM (inactive)
same,GI50,HL-60,18.2 µM (inactive)
same,GI50,SW-620,44.2 µM (inactive)
same,GI50,LOX IMVI,39.9 µM (inactive)
same,GI50,IGROV-1,20.6 µM (inactive)
same,GI50,SN12C,3.99 µM (inactive)
same,GI50,OVCAR-5,> 100 µM (inactive)
same,GI50,MCF7,38.9 µM (inactive)
same,GI50,RPMI-8226,26.1 µM (inactive)
same,GI50,KM12,37.8 µM (inactive)
same,GI50,786-0,12.8 µM (inactive)
same,GI50,TK-10,> 79.1 µM (inactive)
same,GI50,OVCAR-4,61.9 µM (inactive)
same,GI50,OVCAR-8,30.4 µM (inactive)
same,GI50,NCI-H226,41 µM (inactive)
same,GI50,DU-145,27.3 µM (inactive)
O=C1Sc2cc3ccccc3cc2C(=O)Sc2ccc(Br)cc21,GI50,SF-295,13.1 µM (inactive)
same,GI50,NCI/ADR-RES,3.67 µM (inactive)
same,GI50,UACC-62,4.93 µM (inactive)
same,GI50,A549,8.89 µM (inactive)
same,GI50,PC-3,3.43 µM (inactive)
same,GI50,RXF 393,2.48 µM (inactive)
same,GI50,SK-OV-3,15.5 µM (inactive)
same,GI50,HOP-92,7.29 µM (inactive)
same,GI50,Hs-578T,5.09 µM (inactive)
same,GI50,SF-268,6.08 µM (inactive)
same,GI50,CAKI-1,4.73 µM (inactive)
same,GI50,SK-MEL-28,3.13 µM (inactive)
same,GI50,MDA-MB-435,3.48 µM (inactive)
same,GI50,M14,3.54 µM (inactive)
same,GI50,SNB-19,15.2 µM (inactive)
same,GI50,SNB-75,4.84 µM (inactive)
same,GI50,CCRF-CEM,1.12 µM (active)
same,GI50,SR,2.45 µM (inactive)
same,GI50,NCI-H460,7.26 µM (inactive)
same,GI50,T47D,3.33 µM (inactive)
same,GI50,EKVX,14.3 µM (inactive)
same,GI50,U-251,2.06 µM (inactive)
same,GI50,NCI-H23,8.47 µM (inactive)
same,GI50,Malme-3M,11.9 µM (inactive)
same,GI50,SK-MEL-5,8.3 µM (inactive)
same,GI50,ACHN,1.66 µM (inactive)
same,GI50,HOP-62,6.21 µM (inactive)
same,GI50,NCI-H522,1.82 µM (inactive)
same,GI50,A498,19 µM (inactive)
same,GI50,HCC 2998,4.57 µM (inactive)
same,GI50,HCT-15,2.43 µM
same,GI50,HCT-116,5.45 µM (inactive)
same,GI50,HT-29,3.41 µM (inactive)
same,GI50,OVCAR-3,1.79 µM (inactive)
same,GI50,UACC-257,5.81 µM (inactive)
same,GI50,K562,4.17 µM (inactive)
same,GI50,MDA-N,4.51 µM (inactive)
same,GI50,MOLT-4,3.55 µM (inactive)
same,GI50,SK-MEL-2,4.56 µM (inactive)
same,GI50,MDA-MB-231,4.09 µM (inactive)
same,GI50,COLO 205,12.8 µM (inactive)
same,GI50,SF-539,7.93 µM (inactive)
same,GI50,BT-549,3.29 µM (inactive)
same,GI50,HL-60,3.9 µM (inactive)
same,GI50,SW-620,3.07 µM (inactive)
same,GI50,LOX IMVI,1.76 µM (inactive)
same,GI50,IGROV-1,3.78 µM (inactive)
same,GI50,SN12C,3.93 µM (inactive)
same,GI50,OVCAR-5,11.8 µM (inactive)
same,GI50,MCF7,4.46 µM (inactive)
same,GI50,RPMI-8226,1.65 µM (inactive)
same,GI50,KM12,7.16 µM (inactive)
same,GI50,786-0,2.07 µM (inactive)
same,GI50,TK-10,5.33 µM (inactive)
same,GI50,OVCAR-4,14.6 µM (inactive)
same,GI50,OVCAR-8,2.51 µM (inactive)
same,GI50,NCI-H226,14.9 µM (inactive)
same,GI50,DU-145,4.84 µM (inactive)
CN1CCc2c3n(c4cc(Br)ccc24)[C@H](O)CCCC31 (stereo not given in full),GI50,SF-295,1.77 µM (inactive)
same,GI50,NCI/ADR-RES,4.97 µM (inactive)
same,GI50,A549,> 5.86 µM (inactive)
same,GI50,PC-3,5.89 µM (inactive)
same,GI50,RXF 393,2.59 µM (inactive)
same,GI50,SK-OV-3,> 10 µM (inactive)
same,GI50,HOP-92,3.61 µM (inactive)
same,GI50,Hs-578T,2.15 µM (inactive)
same,GI50,SF-268,> 9.31 µM (inactive)
same,GI50,CAKI-1,2.99 µM (inactive)
same,GI50,SK-MEL-28,1.72 µM (inactive)
same,GI50,MDA-MB-435,1.8 µM (inactive)
same,GI50,M14,1.79 µM (inactive)
same,GI50,SNB-19,> 10 µM (inactive)
same,GI50,SNB-75,2.3 µM (inactive)
same,GI50,CCRF-CEM,1.87 µM (inactive)
same,GI50,SR,1.93 µM (inactive)
same,GI50,NCI-H460,1.6 µM (inactive)
same,GI50,T47D,> 10 µM (inactive)
same,GI50,EKVX,> 10 µM (inactive)
same,GI50,U-251,1.85 µM (inactive)
same,GI50,NCI-H23,> 10 µM (inactive)
same,GI50,Malme-3M,2.04 µM (inactive)
same,GI50,SK-MEL-5,3.18 µM (inactive)
same,GI50,ACHN,> 10 µM (inactive)
same,GI50,HOP-62,> 10 µM (inactive)
same,GI50,NCI-H522,1.49 µM (inactive)
same,GI50,UO-31,> 7.52 µM (inactive)
same,GI50,A498,4.11 µM (inactive)
same,GI50,HCC 2998,1.75 µM (inactive)
same,GI50,HCT-15,2.62 µM
same,GI50,HCT-116,1.69 µM (inactive)
same,GI50,HT-29,1.81 µM (inactive)
same,GI50,OVCAR-3,> 7.5 µM (inactive)
same,GI50,UACC-257,2.25 µM (inactive)
same,GI50,K562,1.37 µM (inactive)
same,GI50,MDA-N,1.82 µM (inactive)
same,GI50,MOLT-4,1.95 µM (inactive)
same,GI50,SK-MEL-2,0.736 µM (active)
same,GI50,MDA-MB-231,2.13 µM (inactive)
same,GI50,COLO 205,1.78 µM (inactive)
same,GI50,SF-539,1.9 µM (inactive)
same,GI50,BT-549,> 10 µM (inactive)
same,GI50,HL-60,1.85 µM (inactive)
same,GI50,SW-620,1.96 µM (inactive)
same,GI50,LOX IMVI,1.74 µM (inactive)
same,GI50,IGROV-1,> 7.11 µM (inactive)
same,GI50,SN12C,> 7.16 µM (inactive)
same,GI50,OVCAR-5,> 5.18 µM (inactive)
same,GI50,MCF7,1.78 µM (inactive)
same,GI50,RPMI-8226,2.4 µM (inactive)
same,GI50,KM12,2.38 µM (inactive)
same,GI50,786-0,1.7 µM (inactive)
same,GI50,TK-10,> 7.36 µM (inactive)
same,GI50,OVCAR-4,2.67 µM (inactive)
same,GI50,OVCAR-8,1.79 µM (inactive)
same,GI50,NCI-H226,> 10 µM (inactive)
same,GI50,DU-145,> 10 µM (inactive)
